Measured values as given in patent US20250108038A1 (priority 2023, published 2025).
“And” between values parts separate entries of the source, which are not always exact repeats. Equal entries are not always repeated.

Test system: Long Evans rats
Experiment: Behavioral satiety sequence (BSS)
Format: in vivo, Long Evans rat
Source text: The Behavioural Satiety Sequence (BSS) is a technique used to evaluate physiological satiety. It is based on the expression of a sequence of behaviors including eating, grooming, locomotor activity, followed by resting, which are typically observed in rodents post-ingestion (Halford et al, 1998, Pharmacology Biochemistry and Behaviour. 61(2): 159-168). The BSS is a widely used model for determining the effects of novel pharmaceuticals on food intake and measures of satiety in rodents (Oliveira et al, 2011, Revista de Nutrição. 24(4) 619-628), and to discriminate the cause of reduced food intake following pharmacological manipulation. For example, treatments that may reduce food intake by non-specific mechanisms, such as immobility, malaise, and taste adulteration, will disrupt this sequence (Halford et al, 1998, Pharmacology Biochemistry and Behaviour. 61(2): 159-168).
Specifically, 12 male Long-Evans rats were food-deprived for 22 h with a 2 h feeding period each day. Rats were trained to consume daily food during the 2 h period over 25 days. The testing phase was initiated once the rats consistently consumed 16-18 g of food per day with ≤10% variance in amount of feed consumed. Feeding took place in designated individual boxes in a quiet room separate from the housing room. Continuous remote monitoring via video camera during feeding was used to assess the BSS. Food consumption was measured by weighing the total available food before and after the 2 h feeding window, correcting for spillage. Lorcaserin (1 mg/kg) was included as a reference control (Higgins et al, 2011, Neuropsychopharmacology. 37(5): 1177-1191). Subjects were tested using a repeated-measures, Latin square design with 2-3 days wash-out between treatment cycles.
On scheduled test days, animals were monitored remotely via video camera during the feeding access period. The occurrence of four mutually exclusive behaviors (eating/drinking, grooming, active, rest) were individually scored. Over the 2 h feeding period, behaviors were assessed every 30 seconds. Scores were compiled into 23 5 min timebins (timebin 24 was removed due to early removal of animals) and the frequency of each behavior within each timebin was calculated to determine a temporal frequency of each measure (Rodgers et al, 2010, Pharmacology Biochemistry and Behaviour. 97: 3-14). Percentage time was plotted for each behavioral sequence in each timebin to compare between treatment groups (Higgins et al, 2011, Neuropsychopharmacology. 37(5): 1177-1191).

[1] = Compound I-19 1 mg/kg, AVG of 12 animals
[2] = Compound I-19 1 mg/kg, raw score of individual animals LT-1 to LT-12
[3] = Compound I-19 3 mg/kg i.p., AVG of the group
[4] = Compound I-19 3 mg/kg i.p., raw score per animal

Compound: Clc1ccc(C2(OCC3OCCO3)c3ccccc3C3=NCCN32)cc1 (stereo not drawn) [Compound I-19]
- BSS scoring R (resting), Time Bin 13 (60-65 TOTAL), AVG [1]: 0.13
- BSS scoring R (resting), Time Bin 14 (65-70 TOTAL), AVG [1]: 0.10
- BSS scoring R (resting), Time Bin 15 (70-75 TOTAL), AVG [1]: 0.13
- BSS scoring R (resting), Time Bin 16 (75-80 TOTAL), AVG [1]: 0.18
- BSS scoring R (resting), Time Bin 17 (80-85 TOTAL), AVG [1]: 0.14
- BSS scoring R (resting), Time Bin 18 (85-90 TOTAL), AVG [1]: 0.30
- BSS scoring A (active), Time Bin 13 (60-65 TOTAL) [2]: 2 and 1 (3×) and 0 (6×) and 3 (2×)
- BSS scoring A (active), Time Bin 14 (65-70 TOTAL) [2]: 0 (4×) and 1 (4×) and 2 and 3 (2×) and 4
- BSS scoring A (active), Time Bin 15 (70-75 TOTAL) [2]: 0 (4×) and 2 (4×) and 1 (2×) and 5 (2×)
- BSS scoring A (active), Time Bin 16 (75-80 TOTAL) [2]: 1 (3×) and 2 and 0 (5×) and 4 (2×) and 6
- BSS scoring A (active), Time Bin 17 (80-85 TOTAL) [2]: 9 and 0 (5×) and 4 and 2 and 3 and 1 (3×)
- BSS scoring A (active), Time Bin 18 (85-90 TOTAL) [2]: 1 (3×) and 0 (5×) and 4 and 3 and 2 (2×)
- BSS scoring E (eating/drinking), Time Bin 13 (60-65 TOTAL) [2]: 8 (2×) and 6 (3×) and 10 (3×) and 0 and 9 (2×) and 5
- BSS scoring E (eating/drinking), Time Bin 14 (65-70 TOTAL) [2]: 10 (3×) and 8 (2×) and 9 and 1 and 7 (3×) and 5 and 6
- BSS scoring E (eating/drinking), Time Bin 15 (70-75 TOTAL) [2]: 10 (2×) and 8 (3×) and 7 (2×) and 6 and 3 (2×) and 4 (2×)
- BSS scoring E (eating/drinking), Time Bin 16 (75-80 TOTAL) [2]: 7 (3×) and 9 (2×) and 10 (2×) and 0 and 1 and 8 and 6 and 3
- BSS scoring E (eating/drinking), Time Bin 17 (80-85 TOTAL) [2]: 1 (2×) and 10 (3×) and 6 and 8 (2×) and 0 and 9 (3×)
- BSS scoring E (eating/drinking), Time Bin 18 (85-90 TOTAL) [2]: 9 (2×) and 6 and 7 (3×) and 1 (2×) and 0 (2×) and 8 and 10
- BSS scoring G (grooming), Time Bin 13 (60-65 TOTAL) [2]: 0 (7×) and 2 (2×) and 1 (3×)
- BSS scoring G (grooming), Time Bin 14 (65-70 TOTAL) [2]: 0 (8×) and 1 (4×)
- BSS scoring G (grooming), Time Bin 15 (70-75 TOTAL) [2]: 0 (9×) and 1 and 3 and 2
- BSS scoring G (grooming), Time Bin 16 (75-80 TOTAL) [2]: 2 and 1 and 0 (10×)
- BSS scoring G (grooming), Time Bin 17 (80-85 TOTAL) [2]: 0 (11×) and 1
- BSS scoring G (grooming), Time Bin 18 (85-90 TOTAL) [2]: 0 (8×) and 1 (4×)
- BSS scoring R (resting), Time Bin 13 (60-65 TOTAL) [2]: 0 (7×) and 1 (3×) and 10 and 2
- BSS scoring R (resting), Time Bin 14 (65-70 TOTAL) [2]: 0 (8×) and 8 and 2 and 1 (2×)
- BSS scoring R (resting), Time Bin 15 (70-75 TOTAL) [2]: 0 (5×) and 2 (2×) and 1 (3×) and 4 and 5
- BSS scoring R (resting), Time Bin 16 (75-80 TOTAL) [2]: 0 (6×) and 2 (2×) and 10 and 5 and 1 (2×)
- BSS scoring R (resting), Time Bin 17 (80-85 TOTAL) [2]: 0 (9×) and 2 and 5 and 10
- BSS scoring R (resting), Time Bin 18 (85-90 TOTAL) [2]: 0 (5×) and 1 (2×) and 2 and 7 (2×) and 8 and 10
- BSS scoring A (active), Time Bin 1 (0-5 TOTAL), AVG [3]: 0.11
- BSS scoring A (active), Time Bin 2 (5-10 TOTAL), AVG [3]: 0.02
- BSS scoring A (active), Time Bin 3 (10-15 TOTAL), AVG [3]: 0.11
- BSS scoring A (active), Time Bin 4 (15-20 TOTAL), AVG [3]: 0.13
- BSS scoring A (active), Time Bin 5 (20-25 TOTAL), AVG [3]: 0.06
- BSS scoring A (active), Time Bin 6 (25-30 TOTAL), AVG [3]: 0.11
- BSS scoring E (eating/drinking), Time Bin 1 (0-5 TOTAL), AVG [3]: 0.86
- BSS scoring E (eating/drinking), Time Bin 2 (5-10 TOTAL), AVG [3]: 0.93
- BSS scoring E (eating/drinking), Time Bin 3 (10-15 TOTAL), AVG [3]: 0.87
- BSS scoring E (eating/drinking), Time Bin 4 (15-20 TOTAL), AVG [3]: 0.83
- BSS scoring E (eating/drinking), Time Bin 5 (20-25 TOTAL), AVG [3]: 0.88
- BSS scoring E (eating/drinking), Time Bin 6 (25-30 TOTAL), AVG [3]: 0.84
- BSS scoring G (grooming), Time Bin 1 (0-5 TOTAL), AVG [3]: 0.03
- BSS scoring G (grooming), Time Bin 2 (5-10 TOTAL), AVG [3]: 0.03
- BSS scoring G (grooming), Time Bin 3 (10-15 TOTAL), AVG [3]: 0.01
- BSS scoring G (grooming), Time Bin 4 (15-20 TOTAL), AVG [3]: 0.02
- BSS scoring G (grooming), Time Bin 5 (20-25 TOTAL), AVG [3]: 0.05
- BSS scoring G (grooming), Time Bin 6 (25-30 TOTAL), AVG [3]: 0.01
- BSS scoring R (resting), Time Bin 1 (0-5 TOTAL), AVG [3]: 0.00
- BSS scoring R (resting), Time Bin 2 (5-10 TOTAL), AVG [3]: 0.02
- BSS scoring R (resting), Time Bin 3 (10-15 TOTAL), AVG [3]: 0.02
- BSS scoring R (resting), Time Bin 4 (15-20 TOTAL), AVG [3]: 0.02
- BSS scoring R (resting), Time Bin 5 (20-25 TOTAL), AVG [3]: 0.02
- BSS scoring R (resting), Time Bin 6 (25-30 TOTAL), AVG [3]: 0.04
- BSS scoring A (active), Time Bin 1 (0-5 TOTAL) [4]: 2 and 1 (8×) and 3 and 0 (2×)
- BSS scoring A (active), Time Bin 2 (5-10 TOTAL) [4]: 1 (2×) and 0 (10×)
- BSS scoring A (active), Time Bin 3 (10-15 TOTAL) [4]: 2 (4×) and 1 (2×) and 0 (5×) and 3
- BSS scoring A (active), Time Bin 4 (15-20 TOTAL) [4]: 0 (6×) and 3 (2×) and 2 and 6 and 1 (2×)
- BSS scoring A (active), Time Bin 5 (20-25 TOTAL) [4]: 1 (7×) and 0 (5×)
- BSS scoring A (active), Time Bin 6 (25-30 TOTAL) [4]: 2 (2×) and 1 (5×) and 0 (4×) and 4
- BSS scoring E (eating/drinking), Time Bin 1 (0-5 TOTAL) [4]: 8 (4×) and 9 (6×) and 7 and 10
- BSS scoring E (eating/drinking), Time Bin 2 (5-10 TOTAL) [4]: 8 (3×) and 10 (7×) and 9 (2×)
- BSS scoring E (eating/drinking), Time Bin 3 (10-15 TOTAL) [4]: 8 (4×) and 9 (2×) and 10 (4×) and 7 (2×)
- BSS scoring E (eating/drinking), Time Bin 4 (15-20 TOTAL) [4]: 9 (2×) and 7 (2×) and 10 (4×) and 8 (3×) and 4
- BSS scoring E (eating/drinking), Time Bin 5 (20-25 TOTAL) [4]: 9 (4×) and 10 (3×) and 8 (4×) and 7
- BSS scoring E (eating/drinking), Time Bin 6 (25-30 TOTAL) [4]: 8 (2×) and 9 (3×) and 10 (4×) and 5 and 7 and 6
- BSS scoring G (grooming), Time Bin 1 (0-5 TOTAL) [4]: 0 (9×) and 1 (2×) and 2
- BSS scoring G (grooming), Time Bin 2 (5-10 TOTAL) [4]: 1 (2×) and 0 (9×) and 2
- BSS scoring G (grooming), Time Bin 3 (10-15 TOTAL) [4]: 0 (11×) and 1
- BSS scoring G (grooming), Time Bin 4 (15-20 TOTAL) [4]: 0 (10×) and 1 (2×)
- BSS scoring G (grooming), Time Bin 5 (20-25 TOTAL) [4]: 0 (6×) and 1 (6×)
- BSS scoring G (grooming), Time Bin 6 (25-30 TOTAL) [4]: 0 (11×) and 1
- BSS scoring R (resting), Time Bin 1 (0-5 TOTAL) [4]: 0
- BSS scoring R (resting), Time Bin 2 (5-10 TOTAL) [4]: 0 (10×) and 1 (2×)
- BSS scoring R (resting), Time Bin 3 (10-15 TOTAL) [4]: 0 (11×) and 2
